Test results from US8476298B2 (Exelixis, Inc., priority 2003, dated 2013).
Like-named read-outs stand apart in the source and are kept apart here.

Experiments:
[1] = target: T1, Flt-4 (baculovirus expressed human Flt-4 kinase domain D725-R1298) (Homo sapiens, UniProt P35916); experiment: flt-4 Alphascreen Tyrosine Kinase assay; format: biochemical; conditions: read-out: flt4 IC50;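 note: AlphaScreen chemiluminescence read-out of biotinylated poly(Glu,Tyr) 4:1 phosphorylation via streptavidin donor and PY100 anti-phosphotyrosine acceptor beads, ATP near KM, 1 hr kinase reaction, 10-point dose-response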
T1 construct: human Flt-4 kinase domain D725-R1298; host or cells: baculovirus expression

[2] = target: c-Kit kinase (Homo sapiens, UniProt P10721); experiment: c-Kit AlphaScreen kinase assay; format: biochemical;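 note: c-Kit kinase phosphorylating biotinylated poly(Glu,Tyr), ATP near its KM, 1 h reaction at ambient temperature, AlphaScreen chemiluminescence with streptavidin donor and anti-phosphotyrosine acceptor beads, 10-point inhibitor titration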
[3] = target: T2, KDR (baculovirus expressed human KDR kinase domain D807-V1356) (Homo sapiens, UniProt P35968); experiment: biochemical;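 note: Luciferase-coupled chemiluminescent kinase assay, activity read as percent ATP left after 4 h reaction at ambient temperature, ATP near KM, 10-point dose-response in 384-well plates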
T2 construct: human KDR kinase domain D807-V1356; host or cells: baculovirus expression

[4] = target: T3, c-Met (baculovirus expressed human c-Met kinase domain P948-S1343) (Homo sapiens, UniProt P08581); experiment: c-Met Luciferase-Coupled Chemiluminescent Kinase assay (LCCA); format: biochemical;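 note: kinase activity read as percent ATP left after reaction, by luciferase-luciferin chemiluminescence, with 1 µM ATP and 1 µM poly-EY substrate, 2 h at ambient temperature, 10-point dose-response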
T3 construct: human c-Met kinase domain P948-S1343; host or cells: baculovirus expression

[5] = target: T4, Flt-3 (baculovirus expressed human Flt-3 kinase domain R571-S993) (Homo sapiens, UniProt P36888); experiment: biochemical; conditions: read-out: flt3 IC50;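 note: Luciferase-coupled chemiluminescent kinase assay, activity read as percent ATP left after a 3 h reaction at room temperature, ATP near KM, 10-point dose-response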
T4 construct: human Flt-3 kinase domain R571-S993; host or cells: baculovirus expression
T4 sequence (P36888 571-993): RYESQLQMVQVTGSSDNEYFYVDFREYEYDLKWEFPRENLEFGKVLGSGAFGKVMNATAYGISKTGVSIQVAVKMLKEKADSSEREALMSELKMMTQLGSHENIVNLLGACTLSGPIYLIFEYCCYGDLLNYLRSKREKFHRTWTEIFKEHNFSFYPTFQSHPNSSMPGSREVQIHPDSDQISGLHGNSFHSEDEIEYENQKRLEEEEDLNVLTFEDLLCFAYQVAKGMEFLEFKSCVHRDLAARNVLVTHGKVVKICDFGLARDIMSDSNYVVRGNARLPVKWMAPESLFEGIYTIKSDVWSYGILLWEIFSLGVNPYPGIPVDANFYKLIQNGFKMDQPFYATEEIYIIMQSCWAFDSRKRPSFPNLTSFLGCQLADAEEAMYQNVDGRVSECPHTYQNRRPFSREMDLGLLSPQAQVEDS

[6] = Table 4, inhibition as IC50 class

T3 sequence (P08581 1011-1343 limits assumed): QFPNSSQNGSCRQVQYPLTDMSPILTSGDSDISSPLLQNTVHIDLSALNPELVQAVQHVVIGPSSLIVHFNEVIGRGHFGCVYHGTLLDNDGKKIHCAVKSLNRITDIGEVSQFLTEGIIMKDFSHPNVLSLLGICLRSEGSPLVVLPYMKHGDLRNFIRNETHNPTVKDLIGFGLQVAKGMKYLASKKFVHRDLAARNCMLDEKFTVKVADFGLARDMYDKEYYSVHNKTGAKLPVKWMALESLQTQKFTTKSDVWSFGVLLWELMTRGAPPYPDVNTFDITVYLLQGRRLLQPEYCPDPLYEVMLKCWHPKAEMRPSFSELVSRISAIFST
T1 sequence (P35916 725-1298 isoform P35916-1): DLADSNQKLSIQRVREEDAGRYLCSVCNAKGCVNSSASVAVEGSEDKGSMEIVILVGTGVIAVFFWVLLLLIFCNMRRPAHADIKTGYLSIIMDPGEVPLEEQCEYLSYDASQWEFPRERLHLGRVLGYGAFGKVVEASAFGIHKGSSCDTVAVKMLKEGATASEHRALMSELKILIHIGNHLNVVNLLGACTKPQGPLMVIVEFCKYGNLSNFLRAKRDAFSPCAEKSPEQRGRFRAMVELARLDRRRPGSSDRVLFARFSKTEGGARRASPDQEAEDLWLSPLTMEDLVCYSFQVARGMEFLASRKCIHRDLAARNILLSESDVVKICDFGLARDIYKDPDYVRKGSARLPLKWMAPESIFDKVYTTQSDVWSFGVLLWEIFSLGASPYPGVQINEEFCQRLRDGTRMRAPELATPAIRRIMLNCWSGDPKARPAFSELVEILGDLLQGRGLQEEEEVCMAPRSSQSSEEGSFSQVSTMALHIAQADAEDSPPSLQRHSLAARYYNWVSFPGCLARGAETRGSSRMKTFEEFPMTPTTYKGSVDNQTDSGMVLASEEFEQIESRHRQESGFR
Sequence of c-Kit kinase (P10721 26-976): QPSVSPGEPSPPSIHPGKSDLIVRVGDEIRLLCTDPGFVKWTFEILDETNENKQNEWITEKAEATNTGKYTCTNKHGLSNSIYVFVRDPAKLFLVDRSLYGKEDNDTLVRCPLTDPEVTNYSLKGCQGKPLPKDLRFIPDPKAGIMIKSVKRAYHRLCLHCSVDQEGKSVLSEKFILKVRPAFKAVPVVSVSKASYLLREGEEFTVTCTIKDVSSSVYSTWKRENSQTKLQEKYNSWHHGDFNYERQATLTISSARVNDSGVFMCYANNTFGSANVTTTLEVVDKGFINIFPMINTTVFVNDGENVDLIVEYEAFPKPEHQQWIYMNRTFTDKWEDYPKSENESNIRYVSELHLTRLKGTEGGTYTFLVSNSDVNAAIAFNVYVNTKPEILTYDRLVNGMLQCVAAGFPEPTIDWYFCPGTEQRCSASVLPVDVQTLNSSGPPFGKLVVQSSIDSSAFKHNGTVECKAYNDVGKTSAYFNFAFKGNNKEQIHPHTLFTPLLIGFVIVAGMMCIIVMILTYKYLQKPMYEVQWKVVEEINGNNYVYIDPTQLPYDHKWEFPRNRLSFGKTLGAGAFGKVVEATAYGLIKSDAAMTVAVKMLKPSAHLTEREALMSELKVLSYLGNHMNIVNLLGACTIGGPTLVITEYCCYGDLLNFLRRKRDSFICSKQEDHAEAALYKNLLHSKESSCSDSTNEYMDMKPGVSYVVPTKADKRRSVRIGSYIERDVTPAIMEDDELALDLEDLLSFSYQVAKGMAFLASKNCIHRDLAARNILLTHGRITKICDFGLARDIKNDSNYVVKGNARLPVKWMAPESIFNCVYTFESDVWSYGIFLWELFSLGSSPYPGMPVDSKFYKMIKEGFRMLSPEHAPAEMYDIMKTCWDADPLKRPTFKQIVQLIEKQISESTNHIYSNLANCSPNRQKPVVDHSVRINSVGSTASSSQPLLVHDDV
T2 sequence (P35968 807-1356): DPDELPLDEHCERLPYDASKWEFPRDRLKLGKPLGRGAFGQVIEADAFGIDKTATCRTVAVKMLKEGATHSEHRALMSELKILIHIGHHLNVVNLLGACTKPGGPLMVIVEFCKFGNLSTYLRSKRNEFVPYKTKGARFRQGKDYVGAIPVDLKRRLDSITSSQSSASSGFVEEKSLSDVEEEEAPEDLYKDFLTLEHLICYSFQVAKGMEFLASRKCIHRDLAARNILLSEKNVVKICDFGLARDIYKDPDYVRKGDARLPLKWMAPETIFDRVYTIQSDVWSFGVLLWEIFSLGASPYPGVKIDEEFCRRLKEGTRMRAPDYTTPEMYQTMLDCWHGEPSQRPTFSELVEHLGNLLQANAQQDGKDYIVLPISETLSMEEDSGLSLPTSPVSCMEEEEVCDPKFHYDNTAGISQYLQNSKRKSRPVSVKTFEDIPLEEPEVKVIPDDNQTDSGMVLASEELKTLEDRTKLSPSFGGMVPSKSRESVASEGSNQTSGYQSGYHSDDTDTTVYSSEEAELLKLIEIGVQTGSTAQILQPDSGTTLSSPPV

| Structure (SMILES) | IC50 [1, 6] [nM] | IC50 [2, 6] [nM] | IC50 [3, 6] [nM] | IC50 [4, 6] [nM] | IC50 [5, 6] [nM] | IC50 [1] [nM] | IC50 [2] [nM] | IC50 [3] [nM] | IC50 [4] [nM] | IC50 [5] [nM] |
| --- | --- | --- | --- | --- | --- | --- | --- | --- | --- | --- |
| COc1cc2c(Oc3ccc(NC(=O)C(=O)NCc4cc(C(F)(F)F)ccc4F)cc3F)ccnc2cc1OCC1CCNCC1 [Example 281, N-[3-fluoro-4-({6-(methyloxy)-7-[(piperidin-4-ylmethyl)oxy]quinolin-4-yl}oxy)phenyl]-N′-{[2-fluoro-5-(trifluoromethyl)phenyl]methyl}ethanediamide] | 50 to 500 | 50 to 500 | < 50 | < 50 | < 50 | – | – | – | – | – |
| COc1cc2c(Oc3ccc(NC(=O)C(=O)N[C@@H](Cc4ccccc4)C(=O)N4CCCC4)cc3F)ccnc2cc1OCC1CCNCC1 [Example 284, N-[3-fluoro-4-({6-(methyloxy)-7-[(piperidin-4-ylmethyl)oxy]quinolin-4-yl}oxy)phenyl]-N′-[(1S)-2-oxo-1-(phenylmethyl)-2-pyrrolidin-1-ylethyl]ethanediamide] | – | – | – | – | – | 500 to 5000 | 50 to 500 | 500 to 5000 | < 50 | 50 to 500 |
| COc1cc2nccc(Oc3ncc(NC(=O)CC(=O)Nc4ccccc4)cc3Cl)c2cc1OC [Example 291, N-(6-{[6,7-bis(methyloxy)quinolin-4-yl]oxy}-5-chloropyridin-3-yl)-N′-phenylpropanediamide] | – | – | – | – | – | 500 to 5000 | 50 to 500 | 500 to 5000 | < 50 | < 50 |
| COc1cc2c(Oc3ccc(NC(=O)C(=O)NC(C)C)cc3F)ccnc2cc1OCC1CCNCC1 [Example 294, N-[3-fluoro-4-({6-(methyloxy)-7-[(piperidin-4-ylmethyl)oxy]quinolin-4-yl}oxy)phenyl]-N′-(1-methylethyl)ethanediamide] | – | – | – | – | – | 500 to 5000 | 50 to 500 | 50 to 500 | < 50 | 50 to 500 |
| COCCNC(=O)C(=O)Nc1ccc(Oc2ccnc3cc(OCC4CCNCC4)c(OC)cc23)c(F)c1 [Example 296, N-[3-fluoro-4-({6-(methyloxy)-7-[(piperidin-4-ylmethyl)oxy]quinolin-4-yl}oxy)phenyl]-N′-[2-(methyloxy)ethyl]ethanediamide] | – | – | – | – | – | 500 to 5000 | 50 to 500 | 50 to 500 | 50 to 500 | 50 to 500 |
| COc1cc2c(Oc3ccc(NC(=O)C(=O)NCCN4CCOCC4)cc3F)ccnc2cc1OCC1CCNCC1 [Example 298, N-[3-fluoro-4-({6-(methyloxy)-7-[(piperidin-4-ylmethyl)oxy]quinolin-4-yl}oxy)phenyl]-N′-(2-morpholin-4-ylethyl)ethanediamide] | – | – | – | – | – | 50 to 500 | 50 to 500 | < 50 | 50 to 500 | < 50 |
| COc1cc2c(Oc3ccc(NC(=O)C(=O)N4CCCC4)cc3F)ccnc2cc1OCC1CCNCC1 [Example 299, N-[3-fluoro-4-({6-(methyloxy)-7-[(piperidin-4-ylmethyl)oxy]quinolin-4-yl}oxy)phenyl]-2-oxo-2-pyrrolidin-1-ylacetamide] | – | – | – | – | – | 50 to 500 | 50 to 500 | 50 to 500 | < 50 | 50 to 500 |
| CCN(C)C(=O)C(=O)Nc1ccc(Oc2ccnc3cc(OCC4CCNCC4)c(OC)cc23)c(F)c1 [Example 300, N-ethyl-N′-[3-fluoro-4-({6-(methyloxy)-7-[(piperidin-4-ylmethyl)oxy]quinolin-4-yl}oxy)phenyl]-N-methylethanediamide] | – | – | – | – | – | 50 to 500 | 500 to 5000 | 50 to 500 | < 50 | 50 to 500 |
| COc1cc2nccc(Oc3ncc(NC(=O)C4(C(=O)NCc5ccccc5)CC4)cc3Cl)c2cc1OC [Example 301, N-(6-{[6,7-bis(methyloxy)quinolin-4-yl]oxy}-5-chloropyridin-3-yl)-N′-(phenylmethyl)cyclopropane-1,1-dicarboxamide] | – | – | – | – | – | 50 to 500 | 50 to 500 | 500 to 5000 | < 50 | 50 to 500 |
| O=C(Nc1ccc(F)cc1)C1(C(=O)Nc2ccc(Oc3ccnc4cc(Cl)ccc34)c(F)c2)CC1 [Example 303, N-{4-[(7-chloroquinolin-4-yl)oxy]-3-fluorophenyl}-N′-(4-fluorophenyl)cyclopropane-1,1-dicarboxamide] | – | – | – | – | – | 50 to 500 | 500 to 5000 | < 50 | < 50 | 500 to 5000 |

The next lines start with the values.

| IC50 [1, 6] [nM] | IC50 [2, 6] [nM] | IC50 [3, 6] [nM] | IC50 [4, 6] [nM] | IC50 [5, 6] [nM] | IC50 [1] [nM] | IC50 [2] [nM] | IC50 [3] [nM] | IC50 [4] [nM] | IC50 [5] [nM] | Structure (SMILES) |
| --- | --- | --- | --- | --- | --- | --- | --- | --- | --- | --- |
| – | – | – | – | – | < 50 | < 50 | < 50 | < 50 | < 50 | COc1cc2c(Oc3ncc(NC(=O)C4(C(=O)Nc5ccc(F)cc5)CC4)cc3Cl)ccnc2cc1OCC1CCNCC1 [Example 282, N-[5-chloro-6-({6-(methyloxy)-7-[(piperidin-4-ylmethyl)oxy]quinolin-4-yl}oxy)pyridin-3-yl]-N′-(4-fluorophenyl)cyclopropane-1,1-dicarboxamide] |
| – | – | – | – | – | 50 to 500 | 50 to 500 | < 50 | < 50 | < 50 | COc1cc2c(Oc3ccc(NC(=O)C(=O)NC(C)c4ccc(F)cc4)cc3F)ccnc2cc1OCC1CCNCC1 (stereo not shown) [Example 283, N-[3-fluoro-4-({6-(methyloxy)-7-[(piperidin-4-ylmethyl)oxy]quinolin-4-yl}oxy)phenyl]-N′-[1-(4-fluorophenyl)ethyl]ethanediamide] |
| – | – | – | – | – | < 50 | < 50 | < 50 | < 50 | < 50 | COc1cc2c(Oc3ccc(NC(=O)C(=O)NCCc4ccccc4)cc3F)ncnc2cc1OCC1C[C@H]2CNC[C@H]2C1 (stereo partly drawn) [Example 285, N-{3-fluoro-4-[(6-(methyloxy)-7-{[(3aR,6aS)-octahydrocyclopenta[c]pyrrol-5-ylmethyl]oxy}quinazolin-4-yl)oxy]phenyl}-N′-(2-phenylethyl)ethanediamide] |
| – | – | – | – | – | 50 to 500 | 50 to 500 | 50 to 500 | < 50 | 50 to 500 | COc1cc2c(Oc3ccc(NC(=O)C(=O)NCCc4ccc(N)cc4)cc3F)ccnc2cc1OCC1CCNCC1 [Example 286, N-[2-(4-aminophenyl)ethyl]-N′-[3-fluoro-4-({6-(methyloxy)-7-[(piperidin-4-ylmethyl)oxy]quinolin-4-yl}oxy)phenyl]ethanediamide] |
| – | – | – | – | – | 50 to 500 | 50 to 500 | < 50 | < 50 | < 50 | COc1cc2c(Oc3ccc(NC(=O)C(=O)N4CCC(Cc5ccccc5)CC4)cc3F)ccnc2cc1OCC1CCNCC1 [Example 287, N-[3-fluoro-4-({6-(methyloxy)-7-[(piperidin-4-ylmethyl)oxy]quinolin-4-yl}oxy)phenyl]-2-oxo-2-[4-(phenylmethyl)piperidin-1-yl]acetamide] |
| – | – | – | – | – | < 50 | < 50 | < 50 | < 50 | < 50 | COc1cc2nccc(Oc3ccc(NC(=O)CC(=O)Nc4ccc(F)cc4)cc3)c2cc1OC [Example 288, N-(4-{[6,7-bis(methyloxy)quinolin-4-yl]oxy}phenyl)-N′-(4-fluorophenyl)propanediamide] |
| – | – | – | – | – | 50 to 500 | 50 to 500 | 50 to 500 | 50 to 500 | < 50 | COc1cc2nccc(Oc3ncc(NC(=O)C(C)(C)C(=O)Nc4ccc(F)cc4)cc3Cl)c2cc1OC [Example 292, N-(6-{[6,7-bis(methyloxy)quinolin-4-yl]oxy}-5-chloropyridin-3-yl)-N′-(4-fluorophenyl)-2,2-dimethylpropanediamide] |
| – | – | – | – | – | 50 to 500 | 50 to 500 | 50 to 500 | < 50 | 50 to 500 | CCNC(=O)C(=O)Nc1ccc(Oc2ccnc3cc(OCC4CCNCC4)c(OC)cc23)c(F)c1 [Example 293, N-ethyl-N′-[3-fluoro-4-({6-(methyloxy)-7-[(piperidin-4-ylmethyl)oxy]quinolin-4-yl}oxy)phenyl]ethanediamide] |
| – | – | – | – | – | 50 to 500 | 50 to 500 | 50 to 500 | < 50 | 50 to 500 | CCCCNC(=O)C(=O)Nc1ccc(Oc2ccnc3cc(OCC4CCNCC4)c(OC)cc23)c(F)c1 [Example 295, N-butyl-N′-[3-fluoro-4-({6-(methyloxy)-7-[(piperidin-4-ylmethyl)oxy]quinolin-4-yl}oxy)phenyl]ethanediamide] |
| – | – | – | – | – | 50 to 500 | 50 to 500 | 50 to 500 | < 50 | 50 to 500 | COc1cc2c(Oc3ccc(NC(=O)C(=O)NCC4CC4)cc3F)ccnc2cc1OCC1CCNCC1 [Example 297, N-(cyclopropylmethyl)-N′-[3-fluoro-4-({6-(methyloxy)-7-[(piperidin-4-ylmethyl)oxy]quinolin-4-yl}oxy)phenyl]ethanediamide] |
